Drawing on patent publication US9938273B2 (Plexxikon Inc., priority 2015, dated 2018), this text covers IC50 for 16 compounds.

For test [1], the system named is MOLM-14 D835Y cells, FLT3 ITD and FLT3 D835Y. Put plainly: Cell proliferation assay (CellTiter-Glo), MOLM-14 D835Y. Type of test: cell-based. To be noted: Homo sapiens, 72 h, 3d-Growth, GMean. From the text:
The FLT3 inhibitors may be assessed using the MOLM-14, Acute Myeloid Leukemia cell line that endogenously expresses FLT3 ITD or derivatives of the human FLT3 AML cell line which acquired the D835Y (activation loop) of F691L (gatekeeper) mutation after selection in escalating doses of the FLT3 Inhibitor AC220. FLT3 inhibitors may also be assessed using cells that are engineered to express mutant FLT3. For engineered cells, murine Ba/F3 cells were transfected with full-length FLT3 ITD/D835Y mutations. The parental BA/F3 cells are dependent upon Interleukin-3 (IL-3) for survival, and introduction of the FLT3 constructs rendered these cells dependent upon FLT3 kinase activity when cultured in the absences of IL-3. Engineered BA/F3 cell growth assays can be performed in either the […] of IL-3, to assess the compound inhibition of FLT3 or to detect the presence of off-target activity, respectively. Inhibitors of FLT3 kinase activity reduce or eliminate the FLT3 oncogenic signaling, resulting in reduced cell proliferation. This inhibition is measured as a function of compound concentration to asses IC50 values.
Cell lines used in proliferation assays are as follows in Table 3:
Cells were seeded at 1×10^4 cells per well of a 96 well cell culture plate in 50 μl of cell culture medium. Compounds were dissolved in DMSO, typically at a concentration of 0.5 mM and were serially diluted 1:3 for a total of eight points and added to the cells to final concentrations of […], 0.0041, 0.0014 and 0.00046 μM in 100 μl cell culture medium (final concentration 0.2% DMSO). […] The cells were incubated at 37° C., 5% CO2 for three days. CellTiter-Glo Buffer (Promega Cell Viability Assay catalog #G7573) and substrate were equilibrated to room temperature, and enzyme/substrate Recombinant Firefly Luciferase/Beetle Luciferin was reconstituted. The cell plates were equilibrated to room temperature for 30 minutes, then lysed by addition of an equivalent volume of the Celltiter-Glo Reagent. The plate was mixed for 10 minutes on a plate shaker to lyse the cells. The plates were read on a Tecan M1000 using Luminescence protocol modified to read 0.1 s per well. The luminescence reading assesses the ATP content, which correlates directly with cell number such that the reading as a function of compound concentration was used to determine the IC50 value.
(In general: Cellular ATP, detected with luciferase, serves as a proxy for viable cell number.)

The target of test [2] is T1, FLT3-ITD (Homo sapiens, UniProt P36888).
T1 sequence (P36888 1-993): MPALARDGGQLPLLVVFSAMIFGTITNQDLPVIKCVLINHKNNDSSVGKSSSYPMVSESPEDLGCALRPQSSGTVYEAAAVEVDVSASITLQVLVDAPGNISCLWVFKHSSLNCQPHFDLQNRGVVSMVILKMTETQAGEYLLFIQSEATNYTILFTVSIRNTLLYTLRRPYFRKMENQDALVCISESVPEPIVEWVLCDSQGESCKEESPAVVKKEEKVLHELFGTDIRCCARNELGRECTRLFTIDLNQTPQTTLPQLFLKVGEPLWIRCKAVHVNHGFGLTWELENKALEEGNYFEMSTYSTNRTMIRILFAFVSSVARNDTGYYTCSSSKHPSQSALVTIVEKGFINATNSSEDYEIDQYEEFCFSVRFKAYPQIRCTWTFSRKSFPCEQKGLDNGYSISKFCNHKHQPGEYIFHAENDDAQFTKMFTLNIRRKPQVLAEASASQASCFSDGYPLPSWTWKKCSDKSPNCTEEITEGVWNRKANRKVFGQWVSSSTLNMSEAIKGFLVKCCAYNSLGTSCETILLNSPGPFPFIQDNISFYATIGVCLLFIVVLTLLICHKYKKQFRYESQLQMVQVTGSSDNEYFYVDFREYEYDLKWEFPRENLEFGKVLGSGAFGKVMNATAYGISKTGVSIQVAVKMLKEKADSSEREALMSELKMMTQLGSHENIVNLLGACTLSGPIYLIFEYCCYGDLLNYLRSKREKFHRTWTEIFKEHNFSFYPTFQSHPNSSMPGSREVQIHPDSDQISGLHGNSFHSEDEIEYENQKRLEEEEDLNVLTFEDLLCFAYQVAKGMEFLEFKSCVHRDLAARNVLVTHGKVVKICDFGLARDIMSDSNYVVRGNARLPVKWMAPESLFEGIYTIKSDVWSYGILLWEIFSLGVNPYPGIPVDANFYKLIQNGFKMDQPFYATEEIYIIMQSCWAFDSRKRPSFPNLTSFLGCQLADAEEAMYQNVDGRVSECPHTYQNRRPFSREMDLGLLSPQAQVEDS
Kind of test: AlphaScreen kinase assay with recombinant enzyme, FLT3-ITD. As to conditions: 8pt; read-out: FLT3_ITD 8pt: IC50. The format is biochemical. The method, then: In order to determine the effect of compounds on FLT3 catalytic activity, kinase assays using recombinant enzymes and AlphaScreen® technology have been established. The catalytic activity of c-kit activity was also measured to determine selectivity of the compounds. When the kinases are catalytically active, they phosphorylate a biotinylated peptide substrate on tyrosine residues. Using AlphaScreen® technology, the ability of the compounds to affect the catalytic activity of the kinases can be measured quantitatively. The peptide substrate is immobilized by the AlphaScreen® Streptavidin Donor beads and, upon phosphorylation by a tyrosine kinase, can bind to AlphaScreen® Anti-Phosphotyrosine (PY20) Acceptor beads. Upon excitation of these beads with laser light at 680 nm, singlet oxygen is produced. This singlet oxygen is rapidly quenched, unless the AlphaScreen® Anti-Phosphotyrosine (PY20) Acceptor beads are in close proximity, in which case a proximity signal can be measured at 580 nm. In the presence of catalytic activity, there is a very strong proximity signal. Selective kinase inhibitors affect a decrease in this proximity signal through a decrease in tyrosine phosphorylation of the peptide substrate.
The assay was performed as summarized below.
Poly (Glu4-Tyr) Peptide, biotin conjugate [Biotin-GG(EEEEY)10EE] (SEQ ID NO: 4)
Final concentration=30 nM
Final concentration for IC50 determination=10 μM (FLT3-D835Y or FLT3-ITD) or 100 μM (c-KIT)
AlphaScreen® Phosphotyrosine (PY20) Assay Kit
Final concentration=10 μg/mL
Dilute compounds in DMSO to 20× final concentration.
Add 1 μl of compound to each well of 384 well reaction plate (Perkin Elmer #6005359).
Mix enzyme and Poly (Glu4-Tyr) Peptide substrate at 1.33× final concentration in assay buffer.
Mix ATP at 5× final concentration in assay buffer.
Add 15 μL enzyme/substrate mixture to the reaction plate.
Add 4 μL of ATP to the reaction plate.
Mix Streptavidin Donor beads at 6× final concentration in Stop/Detection buffer.
Add 5 μL Streptavidin Donor beads to the reaction plate. Centrifuge 1 minute, shake to mix, and incubate at room temperature for 20 minutes.
Mix Anti-Phosphotyrosine (PY20) Acceptor beads at 6× final concentration in Stop/Detection buffer.
Add 5 μL Anti-Phosphotyrosine (PY20) beads to the reaction plate.
Centrifuge 1 minute, shake to mix, and incubate at room temperature for 60 minutes.
Read plate on Wallac EnVision™ 2103 Multilabel Reader.

A word on the IC50: it is the point on the concentration scale where inhibition reaches its midpoint. In the case of `O=C(c1cccc(-c2cnc3[nH]c(-c4ccccc4)cc3c2)n1)N1CCC(F)(F)C1` [Compound P-0093, (3,3-difluoropyrrolidin-1-yl)-[6-(2-phenyl-1H-pyrrolo[2,3-b]pyridin-5-yl)-2-pyridyl]methanone], the IC50 in test [1] and in test [2] was 0.0001 to 10 µM in each case.

Take `COC1CCN(C(=O)c2cccc(-c3cnc4[nH]c(-c5ccccc5)cc4c3)n2)C1` (stereo not shown) [Compound P-0095, (3-methoxypyrrolidin-1-yl)-[6-(2-phenyl-1H-pyrrolo[2,3-b]pyridin-5-yl)-2-pyridyl]methanone]: the IC50 in test [1] and in test [2] was 0.0001 to 10 µM each time.

Turning to `CNC(=O)C1CCN(C(=O)c2cccc(-c3cnc4[nH]c(-c5ccccc5)cc4c3)n2)C1` (stereo not shown) [Compound P-0096, N-methyl-1-[6-(2-phenyl-1H-pyrrolo[2,3-b]pyridin-5-yl)pyridine-2-carbonyl]pyrrolidine-3-carboxamide], the IC50 in test [1] and in test [2] was 0.0001 to 10 µM throughout.

With `O=C(c1cccc(-c2cnc3[nH]c(-c4ccccc4)cc3c2)n1)N1CCC(n2ccnc2)C1` (stereo not shown) [Compound P-0097, (3-imidazol-1-ylpyrrolidin-1-yl)-[6-(2-phenyl-1H-pyrrolo[2,3-b]pyridin-5-yl)-2-pyridyl]methanone], the IC50 in test [1] and in test [2] was 0.0001 to 10 µM in each case.

Regarding `N#CCCNC(=O)c1cccc(-c2cnc3[nH]c(-c4ccccc4)cc3c2)n1` [Compound P-0099, N-(2-cyanoethyl)-6-(2-phenyl-1H-pyrrolo[2,3-b]pyridin-5-yl)pyridine-2-carboxamide], the 50% inhibitory concentration (IC50) in test [1] and in test [2] was 0.0001 to 10 µM each time.

As to `CC(C)(C#N)CNC(=O)c1cccc(-c2cnc3[nH]c(-c4ccccc4)cc3c2)n1` [Compound P-0100, N-(2-cyano-2-methyl-propyl)-6-(2-phenyl-1H-pyrrolo[2,3-b]pyridin-5-yl)pyridine-2-carboxamide], the IC50 in test [1] and in test [2] was 0.0001 to 10 µM in each case.

Regarding `N#CC1CCN(C(=O)c2cccc(-c3cnc4[nH]c(-c5ccccc5)cc4c3)n2)C1` (stereo not shown) [Compound P-0105, 1-[6-(2-phenyl-1H-pyrrolo[2,3-b]pyridin-5-yl)pyridine-2-carbonyl]pyrrolidine-3-carbonitrile], the IC50 in test [1] and in test [2] was 0.0001 to 10 µM in each case.

As for `CN[C@@H]1CCN(C(=O)c2ccc(-c3cnc4[nH]c(-c5ccccc5)cc4c3)s2)C1` [Compound P-0106, [(3R)-3-(methylamino)pyrrolidin-1-yl]-[5-(2-phenyl-1H-pyrrolo[2,3-b]pyridin-5-yl)-2-thienyl]methanone], the IC50 in test [1] and in test [2] was 0.0001 to 10 µM throughout.

For the compound `CS(=O)(=O)N1CCC(NS(=O)(=O)c2cccc(-c3cnc4[nH]c(-c5ccccc5)cc4c3)n2)C1` (stereo not shown) [Compound P-0107, N-(1-methylsulfonylpyrrolidin-3-yl)-6-(2-phenyl-1H-pyrrolo[2,3-b]pyridin-5-yl)pyridine-2-sulfonamide], the IC50 in test [1] and in test [2] was 0.0001 to 10 µM throughout.

Regarding `O=S(=O)(NC1CC1)c1cccc(-c2cnc3[nH]c(-c4ccccc4)cc3c2)n1` [Compound P-0109, N-cyclopropyl-6-(2-phenyl-1H-pyrrolo[2,3-b]pyridin-5-yl)pyridine-2-sulfonamide], the IC50 in test [1] and in test [2] was 0.0001 to 10 µM each time.

As for `N#CC1(NC(=O)c2cccc(-c3cnc4[nH]c(-c5ccccc5)cc4c3)n2)CC1` [Compound P-0111, N-(1-cyanocyclopropyl)-6-(2-phenyl-1H-pyrrolo[2.3-b]pyridin-5-yl]pyridine-2-carboxamide], the IC50 in test [1] and in test [2] was 0.0001 to 10 µM each time.

Regarding `O=C(c1cccc(-c2cnc3[nH]c(-c4cnn(CC(F)(F)F)c4)cc3c2)n1)N1CCC(F)(F)C1` [Compound P-0112, (3,3-difluoropyrrolidin-1-yl)-[6-[2-[1-(2,2,2-trifluoroethyl)pyrazol-4-yl]-1H-pyrrolo[2,3-b]pyridin-5-yl]-2-pyridyl]methanone], the IC50 in test [1] and in test [2] was 0.0001 to 10 µM throughout.

As for `CC(C)(C#N)CNC(=O)c1cccc(-c2cnc3[nH]c(-c4cnn(CC(F)(F)F)c4)cc3c2)n1` [Compound P-0113, N-(2-cyano-2-methyl-propyl)-6-[2-[1-(2,2,2-trifluoroethyl)pyrazol-4-yl]-1H-pyrrolo[2,3-b]pyridin-5-yl]pyridine-2-carboxamide], the IC50 in test [1] and in test [2] was 0.0001 to 10 µM each time.

Consider `N#CC1(NC(=O)c2cccc(-c3cnc4[nH]c(-c5ccccc5)cc4c3)n2)CCC1` [Compound P-0114, N-(1-cyanocyclobutyl)-6-(2-phenyl-1H-pyrrolo[2,3-b]pyridin-5-yl)pyridine-2-carboxamide], for which the IC50 in test [1] and in test [2] was 0.0001 to 10 µM throughout.

Turning to `N#CC1(F)CCN(C(=O)c2cccc(-c3cnc4[nH]c(-c5ccccc5)cc4c3)n2)C1` (stereo not shown) [Compound P-0115, 3-fluoro-1-[6-(2-phenyl-1H-pyrrolo[2,3-b]pyridin-5-yl)pyridine-2-carbonyl]pyrrolidine-3-carbonitrile], the IC50 in test [1] and in test [2] was 0.0001 to 10 µM throughout.

Turning to `N#CC1CCN(S(=O)(=O)c2cccc(-c3cnc4[nH]c(-c5ccccc5)cc4c3)n2)C1` (stereo not shown) [Compound P-0121, 1-[[6-(2-phenyl-1H-pyrrolo[2,3-b]pyridin-5-yl)-2-pyridyl]sulfonyl]pyrrolidine-3-carbonitrile], the IC50 in test [1] lay in the range of 0.0001 to 10 µM.
